Assay results from ChEMBL document CHEMBL3045823, “Synthesis and Herbicidal Activities of the O-Syn and O-Anti Benzyl Epoxycyclopentyl Ethers” (2004).
Activity calls are given as the source filed them. The rule behind the calls is not given here.

Experiments:
Echinochloa oryzicola [1] = assay: Herbicide activity against Echinochloa oryzicola assessed as inhibition of growth of first sheath compound treated to seeds measured after 7 days; assay type: functional
Echinochloa oryzicola [2] = assay: Herbicide activity against Echinochloa oryzicola assessed as inhibition of root growth compound treated to seeds measured after 7 days; assay type: functional
Echinochloa oryzicola [3] = assay: Herbicide activity against Echinochloa oryzicola assessed as inhibition of root growth compound treated at 3 ppm to seeds measured after 7 days; assay type: functional, organism-based
Echinochloa oryzicola [4] = assay: Herbicide activity against Echinochloa oryzicola assessed as inhibition of shoot growth compound treated at 3 ppm to seeds measured after 7 days; assay type: functional, organism-based

## CCCCC[C@]12O[C@H]1CC[C@H]2OCc1ccccc1C (racemic)
Echinochloa oryzicola [1]
  growth inhibition (GI): Active
Echinochloa oryzicola [2]
  I50: 0.25 ppm

## CCCCC[C@]12O[C@H]1CC[C@H]2OCc1ccccc1F (racemic)
Echinochloa oryzicola [1]
  I50: 0.2 ppm
Echinochloa oryzicola [2]
  I50: 0.03 ppm

## CCCCC[C@]12O[C@H]1CC[C@H]2OCc1ccccc1Cl (racemic)
Echinochloa oryzicola [1]
  growth inhibition (GI): Active
Echinochloa oryzicola [2]
  I50: 0.5 ppm

## CCCCC[C@]12O[C@H]1CC[C@H]2OCc1ccccc1 (racemic)
Echinochloa oryzicola [1]
  I50: 0.2 ppm
Echinochloa oryzicola [2]
  I50: 0.03 ppm

## CCCCC[C@@]12O[C@@H]1CC[C@H]2OCc1ccccc1 (racemic)
Echinochloa oryzicola [1]
  growth inhibition (GI): Active
Echinochloa oryzicola [3]
  growth inhibition (GI): inactive
Echinochloa oryzicola [4]
  growth inhibition (GI): inactive

## CCCCC[C@@]12O[C@@H]1CC[C@H]2OCc1ccccc1C (racemic)
Echinochloa oryzicola [1]
  growth inhibition (GI): Active
Echinochloa oryzicola [3]
  growth inhibition (GI): inactive
Echinochloa oryzicola [4]
  growth inhibition (GI): inactive

## CCCCC[C@@]12O[C@@H]1CC[C@H]2OCc1ccccc1Cl (racemic)
Echinochloa oryzicola [1]
  growth inhibition (GI): Active
Echinochloa oryzicola [3]
  growth inhibition (GI): inactive
Echinochloa oryzicola [4]
  growth inhibition (GI): inactive

## CCCCC[C@@]12O[C@@H]1CC[C@H]2OCc1ccccc1F (racemic)
Echinochloa oryzicola [1]
  growth inhibition (GI): Active
Echinochloa oryzicola [3]
  growth inhibition (GI): inactive
Echinochloa oryzicola [4]
  growth inhibition (GI): inactive
